# Measured values: paper PMC8632988, “Inhibition of SYK and cSrc kinases can protect bone and cartilage in preclinical models of osteoarthritis and rheumatoid arthritis” (Scientific Reports, 2021)
# Several values for one entry are separate records, joined by “and”; a condition that tells them apart may be missing. Identical values can stand only once.
# Assays:
# [1] = test system: Sprague-Dowley rats, medial meniscal tear (MMT) model; test: Surgically induced meniscal tear OA in rats; assay type: in vivo, rat; conditions: day 21
# Method: Medial meniscal tear (MMT) model was performed at Pharmenterprises, Russia according to the published procedure[31] and approved by Ethics Committee of Pharmenterprises. Male 4-month old Sprague-Dowley rats were anesthetized with Zoletil (Vibrac, France) and Xylazine (Interchemie werken "De Adelaar" BV, Netherlands) mixture. The medial collateral ligament was transected, and the medial meniscus was grasped with a hemostat and reflected proximally toward the femur. The meniscus was transected and then skin was closed with sutures. 60–90 min after surgery rats were subcutaneously injected with flexoprofen (VIC GROUP, Russia). Treatment groups (20 rats each) were intragastrically treated with MT-SYK-03 (100 and 500 mg/kg) or vehicle control (0.5% methylcellulose solution) 24 h before OA induction and then once daily for 21 day. Active control group was subcutaneously injected with zoledronic acid (0.1 mg/kg) 24 h before OA induction and then once every three days for 21 day. After 21 day animals were sacrificed; surgically operated right knee was removed and used for image analysis.
# [2] = test system: human osteoclasts; test: Osteoclast-mediated resorption of the mineralized matrix; assay type: cell-based; set-up: Ratio %: unit not given here; conditions: for Ratio %: vehicle average = 1.000
# Method: The experiment was performed at Atlantic Bone Screen (France) and approved by Atlantic Bone Screen ethics committee. Human CD14 + monocytes were isolated from peripheral blood of healthy volunteers (informed consent was obtained from all subjects) using density gradient centrifugation (Ficoll-Hypaque) and magnetic cell sorting (MACS, MiltenyiBiotec). CD14 + monocytes (1.5 × 10^6 cells/well) were cultured for three days in proliferation medium (αMEM/FCS-10% supplemented with 25 ng/mL M-CSF), inducing proliferation and expression of RANK. Secondly, the cells were differentiated into osteoclasts in differentiation medium supplemented with 100 ng/mL RANKL for 4 days. Osteoclasts were detached from the wells using accutase, the cell suspension was homogenized and cells (75 μL/well) were reseeded into: (a) a 96-well plate coated with a synthetic mineralized matrix for an evaluation of osteoclast resorption, or (b) a classic 96-well plastic culture plate, for an assessment of osteoclast number. 75 μL of differentiation medium containing M-CSF and RANKL (at a 2 × concentration) was added to each well. The cells were incubated for an hour and were cultured for 48 h in the fresh differentiation medium supplemented with MT-SYK-03 or vehicle (DMSO, 0.3%). All treatments were carried out in quadruple. Then the cell medium was removed, cells were lysed and the surface of the resorbed areas of the mineralized matrix was quantified in each well. TRAP staining was performed for cells in a classic plastic plate and the number of mature osteoclasts (TRAP-positive cells with three or more nuclei) was determined in each well. Reconstruction of images and osteoclast count was performed using Nikon NIS-D software.
# [3] = 100 mg/kg intragastrically once daily
# [4] = 500 mg/kg intragastrically once daily
# [5] = MT-SYK-03 0.12 μM, individual wells
# [6] = MT-SYK-03 0.37 μM, individual wells
# [7] = MT-SYK-03 3.3 μM, individual wells
# [8] = MT-SYK-03 10 μM, individual wells
smiles,measurement,setting,value
COc1cc(Nc2ncnc(Nc3cc4c(cn3)NC(=O)C(C)(C)O4)n2)cc(OC)c1OC [MT-SYK-03],Lesion area,[1]; [3],37.3 ± 3.3%
same,Lesion depth,[1]; [3],72.5 ± 6.0%
same,Lesion area,[1]; [4],30.5 ± 2.8%
same,Lesion depth,[1]; [4],35.0 ± 3.0% and 35.0 ± 3.0& %
same,Relative resorbed surface,"[2]; 10 μM, 48 h, versus vehicle control",more than threefold
same,Ratio resorption/Nb OC,"[2]; MT-SYK-03 0.12 μM, Average",0.079
same,"Resorption, % resorption","[2]; MT-SYK-03 0.12 μM, Average",31.78%
same,"TRAP, Number of osteoclasts (Nb OC)","[2]; MT-SYK-03 0.12 μM, Average",405
same,Ratio %,"[2]; MT-SYK-03 0.12 μM, Average",1.001
same,Ratio resorption/Nb OC,[2]; [5],0.088 and 0.075 and 0.085 and 0.067
same,"Resorption, % resorption",[2]; [5],34.41% and 30.62% and 34.06% and 28.02%
same,"TRAP, Number of osteoclasts (Nb OC)",[2]; [5],389 and 408 and 402 and 419
same,Ratio resorption/Nb OC,"[2]; MT-SYK-03 0.37 μM, Average",0.062
same,"Resorption, % resorption","[2]; MT-SYK-03 0.37 μM, Average",26.43%
same,"TRAP, Number of osteoclasts (Nb OC)","[2]; MT-SYK-03 0.37 μM, Average",422
same,Ratio %,"[2]; MT-SYK-03 0.37 μM, Average",0.789
same,Ratio resorption/Nb OC,[2]; [6],0.084 and 0.065 and 0.069 and 0.031
same,"Resorption, % resorption",[2]; [6],33.11% and 27.51% and 32.94% and 12.15%
same,"TRAP, Number of osteoclasts (Nb OC)",[2]; [6],394 and 426 and 478 and 391
same,Ratio resorption/Nb OC,"[2]; MT-SYK-03 3.3 μM, Average",0.015
same,"Resorption, % resorption","[2]; MT-SYK-03 3.3 μM, Average",2.81%
same,"TRAP, Number of osteoclasts (Nb OC)","[2]; MT-SYK-03 3.3 μM, Average",196
same,Ratio %,"[2]; MT-SYK-03 3.3 μM, Average",0.197
same,Ratio resorption/Nb OC,[2]; [7],0.014 and 0.025 and 0.011 and 0.012
same,"Resorption, % resorption",[2]; [7],2.31% and 3.40% and 2.62% and 2.91%
same,"TRAP, Number of osteoclasts (Nb OC)",[2]; [7],165 and 136 and 247 and 235
same,Ratio resorption/Nb OC,"[2]; MT-SYK-03 10 μM, Average",0.004
same,"Resorption, % resorption","[2]; MT-SYK-03 10 μM, Average",1.53%
same,"TRAP, Number of osteoclasts (Nb OC)","[2]; MT-SYK-03 10 μM, Average",8
same,Ratio %,"[2]; MT-SYK-03 10 μM, Average",0.044
same,Ratio resorption/Nb OC,[2]; [8],0.016 and 0.024 and 0.023 and 0.028
same,"Resorption, % resorption",[2]; [8],5.87% and 9.73% and 8.76% and 11.00% and 8.84%
same,"TRAP, Number of osteoclasts (Nb OC)",[2]; [8],371 and 402 and 388 and 390
